Earlier results on two compounds are cited in patent US20190300958A1, “GENETIC POLYMORPHISMS ASSOCIATED WITH VENOUS THROMBOSIS AND STATIN RESPONSE, METHODS OF DETECTION AND USES THEREOF” (Celera Corporation, priority 2010, published 2019).

For one data set, the system named is myocyte cultures. The note with it: animal models and myocyte cultures, compared to lipophilic statins.
The subject of data set [1] is major cardiovascular events. The note with it: study of 17,802 individuals.

With `CC[C@H](C)C(=O)O[C@H]1C[C@H](O)C=C2C=C[C@H](C)[C@H](CC[C@@H](O)C[C@@H](O)CC(=O)O)[C@H]21` [Pravastatin, pravastatin], the myopathic potential entry with myocyte cultures was “low myopathic potential”.
As for `CC(C)c1nc(N(C)S(C)(=O)=O)nc(-c2ccc(F)cc2)c1/C=C/[C@@H](O)C[C@@H](O)CC(=O)O` [rosuvastatin], the “incidence of major cardiovascular events” value in data set [1] is given as “significantly reduced”.
